From US12097212B2, “Use of cationic steroidal antimicrobial compounds to deactivate coronavirus” (Brigham Young University, priority 2020, dated 2024) come the findings set out here.

This assay deals with SARS-CoV-2. In kind it is cell-based. To be noted: 30-minute contact time at 22 ± 2° C.; for Virus (CCID50/0.1 mL): average of 3 replicates ± standard deviation; for LRV (log reduction value): compared to the virus control.

Like-named read-outs stand apart in the source and are kept apart here. Marks after values point to notes of the source that are not given here.

Turning to `CCCCCCCCOC(=O)CC[C@@H](C)[C@H]1CC[C@H]2[C@@H]3[C@H](OC(=O)CCN)C[C@@H]4C[C@H](OC(=O)CCN)CC[C@]4(C)[C@H]3C[C@H](OC(=O)CCN)[C@]12C` [CSA-44HC1], the “Virus (CCID50/0.1 mL)” value is reported as 4.4 ± 0.12 CCID50/0.1 mL (1 μg/mL), 3.9 ± 0.17 CCID50/0.1 mL (5 μg/mL), 0.8 ± 0.19 CCID50/0.1 mL (25 μg/mL) and 1.2 ± 0.94 CCID50/0.1 mL (100 μg/mL). Also, the “LRV (log reduction value)” value runs as follows: (1 μg/mL) 0 log10; (5 μg/mL) 0.5 log10; (25 μg/mL) 3.6 log10; (100 μg/mL) 3.2 log10.

In the case of `CCCCCCCCCCCCNCCC[C@@H](C)[C@H]1CC[C@H]2[C@@H]3[C@H](OCCCN)C[C@@H]4C[C@H](OCCCN)CC[C@]4(C)[C@H]3C[C@H](OCCCN)[C@]12C.Cl.Cl.Cl.Cl` [CSA-131HC1], the “Virus (CCID50/0.1 mL)” value by setting is: (1 μg/mL) 4.1 ± 0.40 CCID50/0.1 mL; (5 μg/mL) 4.1 ± 0.17 CCID50/0.1 mL; (25 μg/mL) 1.2 ± 0.54 CCID50/0.1 mL; (100 μg/mL) <1.7**** CCID50/0.1 mL. For the same compound, the “LRV (log reduction value)” value by setting is: (1 μg/mL) 0.3 log10; (5 μg/mL) 0.3 log10; (25 μg/mL) 3.2 log10; (100 μg/mL) more than 2.7 log10.

Consider `CCO` [Ethanol, reference compound], for which, where the note is “35%”, the “Virus (CCID50/0.1 mL)” value is reported as 0.8 ± 0.23 CCID50/0.1 mL and the “LRV (log reduction value)” value is 3.6 log10.
